Results taken from patent publication US20220162215A1, “COMPOSITIONS AND METHODS OF USING THE SAME FOR TREATMENT OF NEURODEGENERATIVE AND MITOCHONDRIAL DISEASE” (MITOKININ, INC., priority 2019, published 2022).
Where two headings read alike, the source gives them in different places.

Experiments:
[1] = system: Hela MKYP (Mito-Keima/YFP-Parkin) cells; settings: human, 22 h
Protocol: (§1) Briefly, the Hela MKYP (Mito-Keima/YFP-Parkin) cells were seeded at 10K cells/well. EP/MTK compounds were added at seeding (cells were still in suspension). The cells were incubated with the EP/MTK compounds for 16 hours, then 1 μM FCCP/oligomycin was added for 6 hours. Prior to harvesting, cells were scored by eye under 20× magnification for the presence or absence of crystalline or aggregated compound, or round cells.

[2] = Visual inspection of crystallization; type: physicochemical; set-up: key: 1: yes crystals; 0: no crystals; settings: Tables 5A-5D
Protocol: as §1

HeLa MKYP cells = assay: Toxicity / cell death measured by DAPI staining (take-up); type: cell-based; settings: human, 50 μM
Protocol: H2O2 treatment was performed as a control for cell death as measured by DAPI staining.
Briefly, HeLa MKYP cells were plated at 10,000 cells/well in 96 well plates along with compounds at various concentrations. Following 16 hrs of incubation, cells were treated with 1 uM FCCP/oligomycin for 6 hours, then analyzed via FACS for the presence of mitochondria in lysosomes (as determined by an emissions spectrum shift from the pH-sensitive mtKeima tag).

Compound | Inspection of round cells ([1]; 1.6 μM) | Inspection of round cells ([1]; 3.1 μM) | Inspection of round cells ([1]; 6.3 μM) | Inspection of round cells ([1]; 12.5 μM) | Inspection of round cells ([1]; 25 μM) | Inspection of round cells ([1]; 50 μM) | Visual inspection of crystallization ([2]; 1.6 μM) | Visual inspection of crystallization ([2]; 3.1 μM) | Visual inspection of crystallization ([2]; 6.3 μM) | Visual inspection of crystallization ([2]; 12.5 μM) | Visual inspection of crystallization ([2]; 25.0 μM) | Visual inspection of crystallization ([2]; 50.0 μM) | Toxicity (% positive for DAPI take-up @ 50 μM) (HeLa MKYP cells) [%]
c1ccc(CNc2ncnc3nc[nH]c23)cc1 [Compound 6BAP, 6-benzylaminopurine, reference compound] | 0 | 0 | 0 | 0 | 0 | 0 | 0 | 0 | 0 | 0 | 0 | 0 | –
c1coc(CNc2ncnc3[nH]cnc23)c1 [kinetin, reference compound] | 0 | 0 | 0 | 0 | 0 | 0 | 0 | 0 | 0 | 0 | 0 | 0 | 4.9
